Data published in ChEMBL document CHEMBL5550205, “Discovery of a NCOA4 Degrader for Labile Iron-Dependent Ferroptosis Inhibition” (J Med Chem, 2024).
Activity calls are given as the source filed them. No cut-off for these calls is given here. Residues, ends and D or L forms follow the SMILES beside them. *: point of attachment. Cbz = O=C(OCc1ccccc1)*

Experiments:
[1] = target: T1, von Hippel-Lindau disease tumor suppressor/Nuclear receptor coactivator 4 (Homo sapiens, UniProt P40337+Q13772); assay: PROTAC activity at NCOA4/VHL in human HeLa cells assessed as induction of NCOA4 degradation at 50 nM measured for 24 hrs by Western blot analysis; type: cell-based
[2] = target: T1, von Hippel-Lindau disease tumor suppressor/Nuclear receptor coactivator 4; assay: PROTAC activity at NCOA4/VHL in human HeLa cells assessed as induction of NCOA4 degradation at 4 uM measured for 24 hrs by immunoprecipitation analysis; type: cell-based

T1 sequence (P40337 whole entry, looked up): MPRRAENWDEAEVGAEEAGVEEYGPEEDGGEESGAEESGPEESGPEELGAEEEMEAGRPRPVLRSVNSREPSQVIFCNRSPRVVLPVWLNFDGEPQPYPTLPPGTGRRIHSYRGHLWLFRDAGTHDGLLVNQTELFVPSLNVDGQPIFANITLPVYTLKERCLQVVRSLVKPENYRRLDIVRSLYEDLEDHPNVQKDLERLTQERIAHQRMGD
T1 sequence (Q13772 whole entry, looked up): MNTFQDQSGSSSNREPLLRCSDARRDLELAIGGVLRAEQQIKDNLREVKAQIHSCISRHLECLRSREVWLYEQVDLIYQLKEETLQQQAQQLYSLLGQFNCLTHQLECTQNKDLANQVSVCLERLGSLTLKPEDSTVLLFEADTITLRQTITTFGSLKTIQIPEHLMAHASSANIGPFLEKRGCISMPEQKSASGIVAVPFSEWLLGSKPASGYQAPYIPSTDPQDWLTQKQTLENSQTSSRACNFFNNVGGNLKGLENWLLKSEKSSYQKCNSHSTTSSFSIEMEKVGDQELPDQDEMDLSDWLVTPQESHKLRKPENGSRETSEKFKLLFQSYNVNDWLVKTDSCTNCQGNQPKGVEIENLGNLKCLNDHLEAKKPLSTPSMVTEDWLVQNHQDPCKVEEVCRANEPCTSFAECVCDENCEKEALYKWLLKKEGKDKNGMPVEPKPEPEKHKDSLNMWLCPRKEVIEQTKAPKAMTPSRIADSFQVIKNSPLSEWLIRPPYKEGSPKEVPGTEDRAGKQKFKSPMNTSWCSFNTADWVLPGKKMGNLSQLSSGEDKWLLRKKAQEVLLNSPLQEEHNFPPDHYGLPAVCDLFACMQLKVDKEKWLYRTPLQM

SMILES	Activity [1]	Activity [2]
CN1CCN(c2ccc3nc(-c4cccc(N5CCc6cc(F)ccc6C5)c4)[nH]c3c2)CC1	Active	
CC(C)C[C@@H](C=O)NC(=O)[C@H](CC(C)C)NC(=O)[C@H](CC(C)C)NC(=O)OCc1ccccc1 (Cbz-Leu-Leu-Leu-aldehyde)		Active
